Assay results reported in patent US20230381271A1, “PROTOCOL TO MINIMIZE CALCINEURIN INHIBITOR NEPHROTOXICITY” (Aurinia Pharmaceuticals Inc., priority 0001, published 2023).
“Also recorded” adds a separate entry of the source.

Legend:
[1] = test system: patients with lupus nephritis; conditions: patients treated with voclosporin; cited from earlier work
[2] = test system: subjects with lupus nephritis; test: Long-term continuation study: eGFR, UPCR, oral steroid dose; type: in vivo, human; conditions: for Corrected eGFR, mean / UPCR, mean: N = 116
[3] = test system: subjects with lupus nephritis; test: Long-term continuation study: adverse events; type: in vivo, human
[4] = test system: subjects with LN; test: Pooled Phase 2 and Phase 3 lupus nephritis studies: fasting lipid profile; type: in vivo, human
Procedure: (§1) All patients were concurrently administered mycophenolate mofetil (MMF) (target 1 g BID) and rapidly-tapered, low-dose steroids.
Fasting total cholesterol, low-density lipoprotein cholesterol (LDL), high-density lipoprotein cholesterol (HDL), and triglycerides were measured at baseline and at a one year follow-up in a central, CLIA-certified laboratory.

[5] = test system: subjects with lupus nephritis; test: 24-hour urinary electrolyte excretion concentrations in the lupus nephritis trial; type: in vivo, human; conditions: for Potassium urinary excretion concentration, change from baseline, mean ± SEM / Sodium urinary excretion concentration, change from baseline, mean ± SEM: baseline to one year, 24-hour urine
Source text: Twenty-four-hour urine samples from 60 patients in each treatment arm were selected for urinary analysis of electrolytes. […] The mean change from baseline to one year in magnesium, potassium and sodium were presented as 24-hour urinary excretion concentrations.

[6] = test system: LN; test: 48 week study of LN treatment: voclosporin plus MMF and oral corticosteroids, with pharmacodynamic (eGFR-guided) dosing; type: in vivo, human; conditions: for Patients with CR at 24 weeks / Patients with CR at 48 weeks / Patients with PR at 24 weeks / Patients with PR at 48 weeks: patients with no dose reduction
Procedure: The study was conducted over a period of 48 weeks and safety was evaluated at 24 weeks.
Subjects were assessed after 24 weeks and 48 weeks as well as a subsequent evaluation at 50 weeks.
PR is a composite end-point that includes safety and efficacy: UPCR reduction of 50% from baseline and no use of rescue medication.
To determine the efficacy of the pharmacodynamics protocol wherein dosage is reduced or stopped according to the presence or absence of indicators of the decrease in eGFR experienced as a side effect, these three groups of patients were assessed after 24 weeks and 48 weeks of treatment in consideration of whether treatment was altered according to the invention protocol.
PR is defined as UPCR reduction of 50% from baseline and no use of rescue medication.

[7] = test system: subjects with active lupus nephritis; test: Double-blind randomized controlled trial in active lupus nephritis: complete renal response; type: in vivo, human; conditions: at one year
[8] = test system: LN; test: Low dosage protocol: clinical studies similar to Example 1, dosage reduced to 15.8 or 7.9 mg BID; type: in vivo, human
[9] = test system: mouse kidney; test: MALDI-MSI localization in mouse kidney after IV administration; conditions: tail vein injection of parent drug, compared between voclosporin and cyclosporine A species
Procedure: Kidneys were cryosectioned and covered with a matrix for MALDI-MSI analysis. The sample was measured in a raster process in the mass spectrometer, resulting in a spatially resolved mass spectra. The detected molecules were visualized as a color intensity map (m/z 0%-100%). Histological staining of the sample was then performed. Histological staining and the MALDI-MSI measurements of the same sample were co-registered.

[10] = test system: subjects with biopsy-proven active lupus nephritis; test: Pooled Phase 2 and Phase 3 lupus nephritis studies: complete renal response rate; type: in vivo, human; conditions: pooled data
Source text: as §1

[11] = change from baseline to one year
[12] = any subgroup, either treatment arm, one year
[13] = High Dose 39.5 mg BID, 24 weeks, n=88
[14] = High Dose 39.5 mg BID, 48 weeks, n=88
[15] = High Dose 39.5 mg BID, patients with dose reductions (pharmacodynamically dosed)
[16] = Low Dose 23.7 mg BID, 48 weeks, n=89
[17] = Low Dose 23.7 mg BID, patients with dose reductions (pharmacodynamically dosed)
[18] = low dosage 23.7 mg BID + MMF + corticosteroids, whole group

## C=C/C=C/C[C@@H](C)[C@@H](O)[C@H]1C(=O)N[C@@H](CC)C(=O)N(C)CC(=O)N(C)[C@@H](CC(C)C)C(=O)N[C@@H](C(C)C)C(=O)N(C)[C@@H](CC(C)C)C(=O)N[C@@H](C)C(=O)N[C@H](C)C(=O)N(C)[C@@H](CC(C)C)C(=O)N(C)[C@@H](CC(C)C)C(=O)N(C)[C@@H](C(C)C)C(=O)N1C [voclosporin]
[1]
  Mean serum electrolyte concentrations: within normal ranges
[2]; Month 12, 23.7 mg twice daily + MMF + low-dose steroids
  Corrected eGFR, mean: 80.7 mL/min/1.73 m^2
[2]; Month 12
  UPCR, mean: 0.86 mg/mg
[2]; all time points during the three years
  mean UPCR versus control: lower
[2]; at 36 months
  increase from baseline eGFR, compared to the active control group: +2.7 mL/min
[2]; over 36 months, 116 subjects
  mean estimated glomerular filtration rate (eGFR) over time: stable over 36 months
[2]; pre-treatment Baseline
  Corrected eGFR, mean: 79.0 mL/min/1.73 m^2
  UPCR, mean: 3.941 mg/mg
[3]; continuation study
  withdrawals: 12.9%
[3]; continuation study, four deaths in the active control group
  deaths in the treated group: no deaths
[3]; n = 116
  Adverse Event Leading to Voclosporin/Placebo Discontinuation: 10.3%
  Disease-Related Adverse Event: 51.7%
  Treatment-Related Adverse Event: 27.6%
  Treatment-Related Serious Adverse Event: 0.9%
[3]; n = 116, 23.7 mg twice daily + MMF + low-dose steroids
  Any Adverse Event: 88.8%
[3]; up to three years of treatment
  tolerability: well tolerated with no unexpected safety signals observed
[4]; 23.7 mg BID arm
  HDL cholesterol, Change from Baseline to One Year, mean: -5.9 mg/dL
  LDL cholesterol, Change from Baseline to One Year, mean: -57.4 mg/dL
  Total cholesterol, Change from Baseline to One Year, mean: -82.6 mg/dL
  Triglycerides, Change from Baseline to One Year, mean: -74.1 mg/dL
[4]; Baseline, 23.7 mg BID arm, normal range 50 to 130
  LDL cholesterol, observed, mean: 174.0 mg/dL
[4]; Baseline, 23.7 mg BID arm, normal range 50 to 150
  Triglycerides, observed, mean: 239.6 mg/dL
[4]; Baseline, 23.7 mg BID arm, normal range 100 to 200
  Total cholesterol, observed, mean: 288.8 mg/dL
[4]; One Year, 23.7 mg BID arm
  LDL cholesterol, observed, mean: 114.3 mg/dL
  Total cholesterol, observed, mean: 196.6 mg/dL
  Triglycerides, observed, mean: 148.4 mg/dL
[4]; at baseline
  percentage of subjects with normal triglycerides: 32.3%
[4]; at one year
  percentage of subjects with normal triglycerides: 56.1%
[4]; baseline to one year
  increase in percentage of patients with total cholesterol in the normal range: about 42%
  increase in percentage with normal LDL: about 42%
[4]; [11]
  HDL cholesterol, LS Mean Difference Voclosporin vs Control: -0.6 mg/dL
  LDL cholesterol, LS Mean Difference Voclosporin vs Control: -10.3 mg/dL
  Total cholesterol, LS Mean Difference Voclosporin vs Control: -15.1 mg/dL
  Triglycerides, LS Mean Difference Voclosporin vs Control: -15.9 mg/dL
[4]; within the normal range at baseline, both arms
  Mean HDL levels over the study: remained stable throughout the study
[5]; Non-responders, n = 32
  Potassium urinary excretion concentration, change from baseline, mean ± SEM: -2.48 ± 4.806 mmol/L
  Sodium urinary excretion concentration, change from baseline, mean ± SEM: -23.0 ± 12.69 mmol/L
[5]; Responders, n = 28
  Potassium urinary excretion concentration, change from baseline, mean ± SEM: -6.38 ± 24.0 mmol/L
  Sodium urinary excretion concentration, change from baseline, mean ± SEM: -27.6 ± 109 mmol/L
[5]; all subgroups except responders in the control arm, one year
  Decrease from baseline in urinary sodium excretion concentration: < 30.5 mmol/L
[5]; [12]
  Mean changes from baseline in urinary magnesium excretion concentration (magnitude): < 13.4 mg/dL
  Mean changes from baseline in urinary potassium excretion concentration (magnitude): < 6.4 mmol/L
[5]; at the studied dose, regardless of response to treatment
  changes from baseline in urinary electrolyte excretion concentrations of magnesium, potassium, and sodium: not clinically meaningful
[5]; eGFR decrease cohort, n = 28
  Potassium urinary excretion concentration, change from baseline, mean ± SEM: -4.58 ± 4.648 mmol/L
  Sodium urinary excretion concentration, change from baseline, mean ± SEM: -30.5 ± 11.92 mmol/L
[6]; [13]
  Patients with Dose Reduction: 47 (53.4) n(%)
  Patients with no Dose Reduction: 41 (46.6) n(%)
[6]; [14]
  Patients with Dose Reduction: 53 (60.2) n(%)
  Patients with no Dose Reduction: 35 (39.8) n(%)
[6]; [15]
  Patients with CR at 24 weeks, percent: (27.7) %
  Patients with CR at 48 weeks, percent: (45.3) %
  Patients with PR at 24 weeks, number: 34 n
  Patients with PR at 24 weeks, percent: (72.3) %
  Patients with PR at 48 weeks, percent: (77.4) %
[6]; High Dose 39.5 mg BID
  Patients with CR at 24 weeks: 11 (26.8) n(%)
  Patients with CR at 48 weeks: 11 (31.4) n(%)
  Patients with PR at 24 weeks: 24 (58.5) n(%)
  Patients with PR at 48 weeks: 22 (62.9) n(%)
[6]; Low Dose 23.7 mg BID, 24 weeks, n=89
  Patients with no Dose Reduction: 50 (56.2) n(%)
[6]; [16]
  Patients with Dose Reduction: 46 (51.7) n(%)
  Patients with no Dose Reduction: 43 (48.3) n(%)
[6]; [17]
  Patients with CR at 24 weeks, percent: (35.9) %
  Patients with CR at 48 weeks, percent: (52.2) %
  Patients with PR at 24 weeks, percent: (71.8) %
  Patients with PR at 48 weeks, number: 35 n
  Patients with PR at 48 weeks, percent: (76.1) %
[6]; Low Dose 23.7 mg BID
  Patients with CR at 24 weeks: 15 (30.0) n(%)
  Patients with CR at 48 weeks: 20 (46.5) n(%)
  Patients with PR at 24 weeks: 34 (68.0) n(%)
  Patients with PR at 48 weeks: 26 (60.5) n(%)
[6]; [18]
  patients showing CR at 24 weeks: 32.6%
  patients showing PR at 24 weeks: 70%
[7]; 23.7 mg twice daily + MMF + low-dose steroids
  complete renal response rate: 40.8%
[7]; p<0.0001
  complete renal response, OR vs MMF and low-dose steroids only: 2.65
[8]; dosage lowered to 7.9 mg BID quite early in the treatment
  complete or partial remission at reduced dosage: Substantial numbers of subjects showed complete or partial remission
[8]; dosage reduced almost immediately to 15.8 mg BID
  remission at reduced dosage: a substantial portion of subjects showed substantial remission
[9]
  distribution, accumulation and intensity in the kidney (MALDI-MSI): relatively weak throughout the kidney, particularly in the cortex; also recorded: do not accumulate at high concentrations in the kidney
[10]; one year of treatment, added to MMF and low-dose steroids
  complete renal response rate (CRR): 43.7%
[10]; one year, P<0.0001
  complete renal response, OR vs control: 2.76
